Data on 1 compound can be found in patent EP2102204B1, “NEW AMINOPYRROLO[1,2- A]INDOLE ET AMINOPYRIDAZINO[1,6-A]INDOLE DERIVATIVES, METHOD FOR PREPARING THE SAME AND PHARMACEUTICAL COMPOSITIONS CONTAINING THE SAME” (Les Laboratoires Servier, priority 2007, dated 2008).

Each structure is given as a SMILES string.

The subject of data set [1] is cellules endothéliales confluentes de capillaires bovins. As to the kind of experiment: Prediction of blood-brain barrier passage (permeability across endothelial cell layer on filter). Further details: key: élevé; intermédiaire; faible. It is filed as in vitro ADME. The conditions noted are these: 20 µM; LC-MS-MS in lower compartment after 10, 20, 30, 40 et 60 minutes; result as class. The method, then:
Les substances sont incubées à 20 µM dans le compartiment supérieur d'une double cuve séparé du compartiment inférieur soit par un filtre de polycarbonate seul, soit par le même filtre recouvert de cellules endothéliales confluentes de capillaires bovins. L'évaluation de la cinétique de perméabilité est réalisée par quantification LC-MS-MS de la substance inchangée dans le compartiment inférieur après 10, 20, 30, 40 et 60 minutes. Les dérivés testés présentent un passage généralement élevé de la BHE favorisant la cible neurologique. Les résultats sont rendus sous forme de classes : élevé, intermédiaire, faible. Ainsi, l'exemple 17 présente un passage élevé de la BHE.

The test system of data set [2] is protéine tyrosine hydroxylase (TH). The experiment in a line: Induction of tyrosine hydroxylase in the locus coeruleus of mice (immunodetection and image analysis of brain sections). It is filed as in vivo, souris Balb/C. The conditions noted are these: i.p. 20 mg/kg, single injection, 3 days after, % par rapport à la valeur moyenne du groupe témoin. The source says:
Il est recherché, parmi les dérivés, ceux qui sont capables d'induire une augmentation de la protéine tyrosine hydroxylase (TH) dans le cerveau de la souris Balb/C, au niveau du locus coeruleus (LC).
Les animaux utilisés sont des souris mâles de la lignée pure Balb/C (Charles River Laboratories), âgées de 7 à 8 semaines au moment du traitement.
Les souris reçoivent une injection unique par voie intrapéritonéale du composé à tester, dissous dans une solution d'HCl 0,04 M (contrôle correspondant : HCl […]) si le composé est suffisamment soluble, ou dans l'huile d'olive 90 % / DMSO 10 % (contrôle correspondant : huile d'olive 90 % / DMSO 10 %) pour les composés insolubles en milieu aqueux.
Trois jours après l'injection de chaque molécule, tous les animaux sont sacrifiés par décapitation. Les cerveaux extraits sont ensuite congelés dans de l'azote liquide et conservés à -80° C.
Des coupes coronales de 8 microns d'épaisseur sont pratiquées le long de l'axe postéro-antérieur du LC et fixées. Les coupes sont transférées sur membranes Immobilon-P. La TH est mesurée par immunodétection et analyse d'image.

Regarding `CCCN1CC[C@H]2c3ccccc3N3NC(=O)C[C@@H]1[C@@H]23` (racemic) [Exemple 17, (3aRS,6aSR,10cRS)-4-Propyl 3a,4,5,6,6a,10c-hexahydro-3H-1,4,10b-triazafluoranthén-2-one], the “passage de la BHE” value in data set [1] is listed as “élevé”. Moreover, the “quantité de TH au niveau du LC, coupe 1” value in data set [2] (coupe 1 du LC (sens antérieur vers postérieur)) was determined as 73%. The “quantité de TH au niveau du LC, coupe 2” value in data set [2] (coupe 2 du LC (sens antérieur vers postérieur)) came out at 72%. For the same compound, the “quantité de TH au niveau du LC, coupe 3” value in data set [2] (coupe 3 du LC (sens antérieur vers postérieur)) stood at 56%. The “quantité de TH au niveau du LC, coupe 4” value in data set [2] (coupe 4 du LC (sens antérieur vers postérieur)) is reported as 38%. Moreover, the “quantité de TH au niveau du LC, coupe 5” value in data set [2] (coupe 5 du LC (sens antérieur vers postérieur)) worked out at 34%. Moreover, in data set [2] (coupe 6 du LC (sens antérieur vers postérieur)), the “quantité de TH au niveau du LC, coupe 6” value is 36%. In data set [2] (coupe 7 du LC (sens antérieur vers postérieur)), the “quantité de TH au niveau du LC, coupe 7” value worked out at 13%. For the same compound, the “quantité de TH au niveau du LC, coupe 8” value in data set [2] (coupe 8 du LC (sens antérieur vers postérieur)) was 3%.
